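These data come from cells grown in 96-well plates and exposed to compound for 48 hours at five concentrations. GI50 is the concentration that inhibits growth by half.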 Activity calls are given as the source filed them. Rule as the data show it: active = GI50 up to about 1.1 µM and inactive = higher.
Tests used:
Assay in all cases: inhibition of tumour cell growth, NCI panel, 48 h
786-0 = system: 786-0
A498 = system: A498
BT-549 = system: BT-549
COLO 205 = system: COLO 205
HCC 2998 = system: HCC 2998
HCT-15 = system: HCT-15
HOP-62 = system: HOP-62
HOP-92 = system: HOP-92
IGROV-1 = system: IGROV-1
MDA-MB-231 = system: MDA-MB-231
MDA-N = system: MDA-N
OVCAR-3 = system: OVCAR-3
OVCAR-4 = system: OVCAR-4
PC-3 = system: PC-3
RXF 393 = system: RXF 393
SK-OV-3 = system: SK-OV-3
CCRF-CEM = system: CCRF-CEM
SR = system: SR
LOX IMVI = system: LOX IMVI

Row | Compound | GI50 (786-0) | GI50 (A498) | GI50 (BT-549) | GI50 (COLO 205) | GI50 (HCC 2998) | GI50 (HCT-15) [µM] | GI50 (HOP-62) | GI50 (HOP-92) | GI50 (IGROV-1) | GI50 (MDA-MB-231) | GI50 (MDA-N) | GI50 (OVCAR-3) | GI50 (OVCAR-4) | GI50 (PC-3) | GI50 (RXF 393) | GI50 (SK-OV-3) | GI50 (CCRF-CEM) | GI50 (SR) | GI50 (LOX IMVI)
1 | Cc1cc(-c2[nH]c(C(=O)O)cc2I)on1 | 36.6 µM (inactive) | > 100 µM (inactive) | 66.1 µM (inactive) | > 100 µM (inactive) | > 100 µM (inactive) | > 100 | 26.9 µM (inactive) | 9.33 µM (inactive) | 12.5 µM (inactive) | 75.2 µM (inactive) | > 100 µM (inactive) | > 100 µM (inactive) | > 100 µM (inactive) | > 100 µM (inactive) | 24 µM (inactive) | 76 µM (inactive) | – | – | –
2 | CCN(CC)Cc1cc(Nc2c3ccccc3nc3c4ccccc4n(C)c23)cc(CN(CC)CC)c1O | 3.48 µM (inactive) | 6.07 µM (inactive) | 2 µM (inactive) | 2.77 µM (inactive) | 5.11 µM (inactive) | 4.1 | 4.4 µM (inactive) | 4.6 µM (inactive) | 9.98 µM (inactive) | 3.03 µM (inactive) | – | 2.43 µM (inactive) | 4.43 µM (inactive) | 2.42 µM (inactive) | 3.16 µM (inactive) | 14.4 µM (inactive) | 2.4 µM (inactive) | 2.82 µM (inactive) | –
3 | COC(=O)c1c(C)cccc1C1CN=NC12Cc1cc(C)cc(C)c1C2=O (stereo not given) | 42.7 µM (inactive) | 24.9 µM (inactive) | 29.7 µM (inactive) | 17.2 µM (inactive) | 22.9 µM (inactive) | 30.5 | 44 µM (inactive) | 20.4 µM (inactive) | 57.7 µM (inactive) | 12.4 µM (inactive) | 37.6 µM (inactive) | 28.9 µM (inactive) | 29.2 µM (inactive) | 30.1 µM (inactive) | 34 µM (inactive) | 38.5 µM (inactive) | 23 µM (inactive) | – | 17 µM (inactive)
4 | CCc1c(CNC2=NCCN2)c(CC)c(CNC2=NCCN2)c(CC)c1CNC1=NCCN1 | > 100 µM (inactive) | > 100 µM (inactive) | > 100 µM (inactive) | > 100 µM (inactive) | > 100 µM (inactive) | > 100 | > 100 µM (inactive) | > 100 µM (inactive) | > 100 µM (inactive) | – | > 100 µM (inactive) | > 100 µM (inactive) | > 100 µM (inactive) | > 100 µM (inactive) | > 100 µM (inactive) | > 100 µM (inactive) | > 100 µM (inactive) | > 100 µM (inactive) | –
5 | COc1ccc(/C=C2\CCC(CNc3ccc(Br)cc3)C2=O)cc1 (stereo not given) | > 100 µM (inactive) | > 100 µM (inactive) | 88.7 µM (inactive) | 81.8 µM (inactive) | 83.9 µM (inactive) | 8.45 | > 100 µM (inactive) | > 100 µM (inactive) | > 100 µM (inactive) | 53.3 µM (inactive) | – | > 100 µM (inactive) | > 100 µM (inactive) | > 100 µM (inactive) | > 100 µM (inactive) | > 100 µM (inactive) | 31.8 µM (inactive) | 24.2 µM (inactive) | 25.9 µM (inactive)
6 | C/C=C\C(CC(=O)NCCC1CN(C(=O)OCc2ccccc2)c2ccccc21)CC(=O)OC (stereo not given) | > 100 µM (inactive) | > 100 µM (inactive) | > 100 µM (inactive) | 50.5 µM (inactive) | > 100 µM (inactive) | > 100 | > 100 µM (inactive) | 72.1 µM (inactive) | > 100 µM (inactive) | > 100 µM (inactive) | > 100 µM (inactive) | > 100 µM (inactive) | > 100 µM (inactive) | 99.8 µM (inactive) | > 100 µM (inactive) | > 100 µM (inactive) | > 100 µM (inactive) | – | –
7 | COC(=O)Cc1c([C@H]2[C@H](CC(=O)OC)c3ccccc3N2C(C)=O)[nH]c2ccccc12 | > 100 µM (inactive) | > 100 µM (inactive) | 67.6 µM (inactive) | 67.1 µM (inactive) | – | 64.3 | > 100 µM (inactive) | > 100 µM (inactive) | 34.4 µM (inactive) | > 100 µM (inactive) | > 100 µM (inactive) | > 100 µM (inactive) | – | 80 µM (inactive) | > 100 µM (inactive) | > 100 µM (inactive) | 67.5 µM (inactive) | – | > 100 µM (inactive)
8 | O=C(Cn1c2c(c3ccccc31)CCCC2)NC1CCCCC1 | 69.8 µM (inactive) | > 100 µM (inactive) | > 100 µM (inactive) | > 100 µM (inactive) | > 100 µM (inactive) | > 100 | 81.8 µM (inactive) | – | 22.5 µM (inactive) | – | > 100 µM (inactive) | 96.4 µM (inactive) | 94.2 µM (inactive) | 88.7 µM (inactive) | – | 45.9 µM (inactive) | > 100 µM (inactive) | – | 68.5 µM (inactive)
9 | COc1cc(Nc2nc3cc(C(F)(F)F)ccc3nc2C(=O)O)cc(OC)c1OC | 52.8 µM (inactive) | 77.8 µM (inactive) | 34.9 µM (inactive) | 45.5 µM (inactive) | 61 µM (inactive) | 39.6 | 44.3 µM (inactive) | 29.6 µM (inactive) | 66.1 µM (inactive) | 21.8 µM (inactive) | 33.3 µM (inactive) | 29.7 µM (inactive) | > 100 µM (inactive) | – | 28.9 µM (inactive) | – | 29.4 µM (inactive) | – | 32.1 µM (inactive)
10 | COc1cc(Nc2c(C#N)[n+]([O-])c3ccccc3[n+]2[O-])cc(OC)c1OC | 20 µM (inactive) | 48.3 µM (inactive) | 97.5 µM (inactive) | 12.6 µM (inactive) | 18.4 µM (inactive) | 15.6 | 29 µM (inactive) | 28.1 µM (inactive) | – | – | – | 25.6 µM (inactive) | > 100 µM (inactive) | 33.3 µM (inactive) | 33.8 µM (inactive) | 15.7 µM (inactive) | 27 µM (inactive) | – | 26.7 µM (inactive)
11 | NC(=O)C(=CN1C(=O)CC(=O)NC1=S)C(N)=O | > 100 µM (inactive) | > 100 µM (inactive) | > 100 µM (inactive) | > 100 µM (inactive) | > 100 µM (inactive) | > 100 | > 100 µM (inactive) | > 100 µM (inactive) | > 100 µM (inactive) | > 100 µM (inactive) | – | > 100 µM (inactive) | > 100 µM (inactive) | – | > 100 µM (inactive) | > 100 µM (inactive) | – | – | > 100 µM (inactive)
12 | O=C(Cc1ccccc1)NN1C(=O)/C(=C\c2ccccc2)S/C1=N\c1ccccc1 | > 100 µM (inactive) | > 100 µM (inactive) | > 100 µM (inactive) | > 100 µM (inactive) | > 100 µM (inactive) | > 100 | > 100 µM (inactive) | > 100 µM (inactive) | > 100 µM (inactive) | > 100 µM (inactive) | > 100 µM (inactive) | > 100 µM (inactive) | > 100 µM (inactive) | – | > 100 µM (inactive) | > 100 µM (inactive) | – | – | –

Source: ChEMBL document CHEMBL1201862, “PubChem BioAssay data set” (2004)
